Assay results from patent US20230338316A1, “ABBAPOLINS AS INHIBITORS AND DEGRADERS OF POLO-LIKE KINASES” (UNIVERSITY OF SOUTH CAROLINA, priority 2022, published 2023).

Assays:
RPMI-8226 = experiment: Single dose cell viability assay, RPMI-8226; format: cell-based; conditions: RPMI-8226 (Leukemia), single dose 25 μM
Protocol: (§1) Lead abbapolin compounds were tested in multiple cancer cell lines, including non-small cell lung cancer (NSCLC) cells, melanoma cells, colon cancer cells, central nervous system (CNS) cancer cells, prostate cancer cells, renal cancer cells, and breast cancer cells. Each of these cancer cells lines were sensitive to the lead abbapolin compounds in a cell viability assay, including 6184 (Table 3), 6277 (Table 4), 6279 (Table 5), 6355 (Table 6), 6359 (Table 7), 6369 (Table 8), and 6421 (Table 9).

PLK3 PBD (335-646) = molecular target: T1, PLK3 PBD (335-646) (Homo sapiens, UniProt Q9H4B4); experiment: Fluorescence polarization assay, PLK3 PBD; format: binding
T1 construct: PLK1 PBD (367-603) and PLK3 PBD (335-646) proteins were obtained from BPS Biosciences Inc; purchased BPS Biosciences Inc. (San Diego, CA)
T1 sequence (Q9H4B4 335-646): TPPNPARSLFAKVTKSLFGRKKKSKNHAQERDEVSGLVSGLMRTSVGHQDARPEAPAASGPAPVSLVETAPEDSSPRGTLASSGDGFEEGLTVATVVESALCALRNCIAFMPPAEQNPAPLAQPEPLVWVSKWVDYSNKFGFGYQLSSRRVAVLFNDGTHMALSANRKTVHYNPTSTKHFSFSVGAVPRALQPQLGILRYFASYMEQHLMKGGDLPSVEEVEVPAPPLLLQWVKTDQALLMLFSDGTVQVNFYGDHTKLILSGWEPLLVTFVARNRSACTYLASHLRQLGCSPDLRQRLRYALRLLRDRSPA
Protocol: (§2) Materials were dissolved in DMSO (10 mM) and diluted from 10 nM to 600 μM (maximum of 6% DMSO tolerance in the assay). PLK1 PBD (367-603) and PLK3 PBD (335-646) proteins were obtained from BPS Biosciences Inc. (San Diego, CA); 17 ng PLK1 and 156 ng PLK3 were used per reaction. The fluorescein-tracer phospho-peptides (MAGPMQS[pT]PLNGAKK (SEQ ID NO: 1) for PLK1, and GPLATS[pT]PKNG (SEQ ID NO: 2) for PLK3) were used at a final concentration of 10 nM. Incubation was carried out at room temperature for 45 minutes. Fluorescence was measured using a DTX 880 plate reader and Multimode Analysis software (Beckman Coulter, Brea, CA). The polarization values in millipolarization (mP) units were measured at an excitation wavelength of 488 nm and an emission wavelength of 535 nm. Each data point was performed in triplicate for every experiment, and experiments were performed at least three times. An IC50 value for each compound was calculated from linear regression analysis of the plots.

A549/ATCC = experiment: Single dose cell viability assay, A549/ATCC; format: cell-based; conditions: A549/ATCC (NSCLC), single dose 25 μM
Protocol: as §1

CCRF-CEM = experiment: Single dose cell viability assay, CCRF-CEM; format: cell-based; conditions: CCRF-CEM (Leukemia), single dose 25 μM
Protocol: as §1

PLK1 = PLK1 (Homo sapiens, UniProt P53350); experiment: PLK1 degradation in SH-SY5Y cells; format: cell-based; design: endogenous in cells
Sequence of PLK1 (P53350 whole entry): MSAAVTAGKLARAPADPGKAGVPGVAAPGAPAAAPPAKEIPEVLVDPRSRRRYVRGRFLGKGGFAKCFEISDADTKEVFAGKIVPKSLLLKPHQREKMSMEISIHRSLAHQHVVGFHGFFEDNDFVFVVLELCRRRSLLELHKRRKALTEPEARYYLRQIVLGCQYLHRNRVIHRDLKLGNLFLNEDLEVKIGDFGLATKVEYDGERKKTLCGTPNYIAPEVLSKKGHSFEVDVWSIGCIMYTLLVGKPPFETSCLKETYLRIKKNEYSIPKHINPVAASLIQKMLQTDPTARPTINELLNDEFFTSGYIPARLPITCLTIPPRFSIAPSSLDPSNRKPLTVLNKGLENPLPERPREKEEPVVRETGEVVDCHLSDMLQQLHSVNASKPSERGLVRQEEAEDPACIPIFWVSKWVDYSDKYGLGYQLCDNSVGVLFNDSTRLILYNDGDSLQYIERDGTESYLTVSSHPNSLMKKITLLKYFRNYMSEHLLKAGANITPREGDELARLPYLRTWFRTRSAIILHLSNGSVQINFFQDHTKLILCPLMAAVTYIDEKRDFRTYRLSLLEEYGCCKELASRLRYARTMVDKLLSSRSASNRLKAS
Protocol: (§3) Abbapolin compounds activity was evaluated in neuroblastoma cells. […] Further, abbapolins induced PLK1 degradation in SH-SY5Y cells (FIG. 14-16).

SR = experiment: Single dose cell viability assay, SR; format: cell-based; conditions: SR (Leukemia), single dose 25 μM
Protocol: as §1

K-562 = experiment: Single dose cell viability assay, K-562; format: cell-based; conditions: K-562 (Leukemia), single dose 25 μM
Protocol: as §1

NCI-H460 = experiment: Single dose cell viability assay, NCI-H460; format: cell-based; conditions: NCI-H460 (NSCLC), single dose 25 μM
Protocol: as §1

[1] = test system: SH-SY5Y neuroblastoma cells overexpressing PLK1; experiment: Cell viability assay in neuroblastoma cells; format: cell-based; conditions: Homo sapiens, SH-SY5Y
Protocol: as §3

MOLT-4 = experiment: Single dose cell viability assay, MOLT-4; format: cell-based; conditions: MOLT-4 (Leukemia), single dose 25 μM
Protocol: as §1

HCT-15 = experiment: Single dose cell viability assay, HCT-15; format: cell-based; conditions: HCT-15 (Colon), single dose 25 μM
Protocol: as §1

LOX IMVI = experiment: Single dose cell viability assay, LOX IMVI; format: cell-based; conditions: single dose 25 μM, 48 hours
Protocol: as §1

PLK1 PBD (367-603) = molecular target: T2, PLK1 PBD (367-603) (Homo sapiens, UniProt P53350); experiment: Fluorescence polarization assay, PLK1 PBD; format: binding; conditions: fluorescence polarization; read-out: PLK1 PBD IC50
T2 construct: PLK1 PBD (367-603) and PLK3 PBD (335-646) proteins were obtained from BPS Biosciences Inc; purchased BPS Biosciences Inc. (San Diego, CA)
T2 sequence (P53350 367-603): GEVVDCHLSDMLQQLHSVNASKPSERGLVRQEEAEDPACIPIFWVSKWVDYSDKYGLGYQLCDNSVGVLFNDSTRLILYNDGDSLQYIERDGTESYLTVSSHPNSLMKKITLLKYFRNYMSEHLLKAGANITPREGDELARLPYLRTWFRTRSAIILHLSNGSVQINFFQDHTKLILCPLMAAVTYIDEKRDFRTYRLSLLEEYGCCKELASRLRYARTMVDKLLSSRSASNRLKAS
Protocol: as §2

HCT-116 = experiment: Single dose cell viability assay, HCT-116; format: cell-based; conditions: HCT-116 (Colon), single dose 25 μM
Protocol: as §1

SNB-19 = experiment: Single dose cell viability assay, SNB-19; format: cell-based; conditions: SNB-19 (CNS), single dose 25 μM
Protocol: as §1

PC-3 = experiment: Single dose cell viability assay, PC-3; format: cell-based; conditions: PC-3 (Prostate), single dose 25 μM
Protocol: as §1

NCI-H522 = experiment: Single dose cell viability assay, NCI-H522; format: cell-based; conditions: NCI-H522 (NSCLC), single dose 25 μM
Protocol: as §1

SF-295 = experiment: Single dose cell viability assay, SF-295; format: cell-based; conditions: SF-295 (CNS), single dose 25 μM
Protocol: as §1

KM12 = experiment: Single dose cell viability assay, KM12; format: cell-based; conditions: KM12 (Colon), single dose 25 μM
Protocol: as §1

U251 = experiment: Single dose cell viability assay, U251; format: cell-based; conditions: U251 (CNS), single dose 25 μM
Protocol: as §1

ACHN = experiment: Single dose cell viability assay, ACHN; format: cell-based; conditions: ACHN (Renal), single dose 25 μM
Protocol: as §1

HOP-92 = experiment: Single dose cell viability assay, HOP-92; format: cell-based; conditions: HOP-92 (NSCLC), single dose 25 μM
Protocol: as §1

MCF7 = experiment: Single dose cell viability assay, MCF7; format: cell-based; conditions: MCF7 (Breast), single dose 25 μM
Protocol: as §1

SK-MEL-5 = experiment: Single dose cell viability assay, SK-MEL-5; format: cell-based; conditions: SK-MEL-5 (Melanoma), single dose 25 μM
Protocol: as §1

NCI-H23 = experiment: Single dose cell viability assay, NCI-H23; format: cell-based; conditions: NCI-H23 (NSCLC), single dose 25 μM
Protocol: as §1

HL-60(TB) = experiment: Single dose cell viability assay, HL-60(TB); format: cell-based; conditions: HL-60(TB) (Leukemia), single dose 25 μM
Protocol: as §1

SK-MEL-2 = experiment: Single dose cell viability assay, SK-MEL-2; format: cell-based; conditions: SK-MEL-2 (Melanoma), single dose 25 μM
Protocol: as §1

UO-31 = experiment: Single dose cell viability assay, UO-31; format: cell-based; conditions: UO-31 (Renal), single dose 25 μM
Protocol: as §1

EKVX = experiment: Single dose cell viability assay, EKVX; format: cell-based; conditions: EKVX (NSCLC), single dose 25 μM
Protocol: as §1

NCI-H226 = experiment: Single dose cell viability assay, NCI-H226; format: cell-based; conditions: NCI-H226 (NSCLC), single dose 25 μM
Protocol: as §1

T-47D = experiment: Single dose cell viability assay, T-47D; format: cell-based; conditions: T-47D (Breast), single dose 25 μM
Protocol: as §1

UACC-62 = experiment: Single dose cell viability assay, UACC-62; format: cell-based; conditions: UACC-62 (Melanoma), single dose 25 μM
Protocol: as §1

MDA-MB-468 = experiment: Single dose cell viability assay, MDA-MB-468; format: cell-based; conditions: MDA-MB-468 (Breast), single dose 25 μM
Protocol: as §1

For `CCCCCCCCc1cccc(CC(=O)Nc2ccc(C)cc2C(=O)O)c1` [compound 6277], the “Cells Remaining (%)” value (RPMI-8226) was 25.43%, the IC50 (PLK3 PBD (335-646)) was 29.4 µM and the “Cells Remaining (%)” value (A549/ATCC) was 31.38%. For the same compound, the “Cells Remaining (%)” value (CCRF-CEM) was 26.74%, the PLK1 degradation (PLK1) was “degradation of PLK1” and the “Cells Remaining (%)” value (SR) was 31.08%. For the same compound, the “Cells Remaining (%)” value (K-562) was 28.94%, the “Cells Remaining (%)” value (NCI-H460) was 20.45% and the IC50 [1] was 5.25 ± 0.5 µM. For the same compound, the “Cells Remaining (%)” value (MOLT-4) was 17.93%, the “Cells Remaining (%)” value (HCT-15) was 13.2% and the inhibition at 25 µM (LOX IMVI; Homo sapiens, LOX IMVI, from cells remaining) was 96.4%. The “Cells Remaining (%)” value (LOX IMVI; LOX IMVI (Melanoma)) was 3.4%, the IC50 (PLK1 PBD (367-603)) was 19.7 µM and the “Cells Remaining (%)” value (HCT-116) was 28.14%.

`CCCCCCCCc1ccc(C(=O)Nc2ccc(C)cc2C(=O)O)cc1O` [compound 6279] was tested, and the “Cells Remaining (%)” value (RPMI-8226) was 63.91%, the “Cells Remaining (%)” value (SNB-19) was 43.49% and the “Cells Remaining (%)” value (CCRF-CEM) was 55.59%. For the same compound, the “Cells Remaining (%)” value (K-562) was 49.7%, the “Cells Remaining (%)” value (PC-3) was 58.63% and the “Cells Remaining (%)” value (NCI-H522) was 59.89%. The “Cells Remaining (%)” value (SF-295) was 59.38%, the “Cells Remaining (%)” value (KM12) was 52.19% and the “Cells Remaining (%)” value (HCT-15) was 56.83%. The “Cells Remaining (%)” value (U251) was 45.14%, the IC50 (PLK1 PBD (367-603)) was 31.8 µM and the “Cells Remaining (%)” value (ACHN) was 61.79%. For the same compound, the “Cells Remaining (%)” value (HOP-92) was 57.85%.

For `CCCCCCCCc1ccc(C(=O)Nc2ccccc2O)cc1` [compound 6421], the “Cells Remaining (%)” value (MCF7) was 35.21%, the “Cells Remaining (%)” value (RPMI-8226) was 48.98% and the “Cells Remaining (%)” value (SK-MEL-5) was 70.42%. The “Cells Remaining (%)” value (NCI-H23) was 62.07%, the “Cells Remaining (%)” value (HL-60(TB)) was 69.66% and the “Cells Remaining (%)” value (SK-MEL-2) was 38.46%. The “Cells Remaining (%)” value (CCRF-CEM) was 37.43%, the “Cells Remaining (%)” value (UO-31) was 59.4% and the “Cells Remaining (%)” value (EKVX) was 52.89%. For the same compound, the “Cells Remaining (%)” value (K-562) was 53.71%, the “Cells Remaining (%)” value (NCI-H522) was 70.52% and the “Cells Remaining (%)” value (MOLT-4) was 58.2%. The “Cells Remaining (%)” value (NCI-H226) was 66.21%, the “Cells Remaining (%)” value (T-47D) was 27.32% and the “Cells Remaining (%)” value (UACC-62) was 69.99%. For the same compound, the “Cells Remaining (%)” value (MDA-MB-468) was 45.03%.
